Data: PubChem BioAssay (NCI)
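Each compound was tested at five concentrations against cells in 96-well plates for 48 hours. The concentration for full growth arrest is given as TGI.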

Experiments:
Experiment in all cases: DTP human tumour cell line panel, 48 h
[1] = system: SW-620 colon
[2] = system: BT-549 breast
[3] = system: HT29 colon
[4] = system: MALME-3M melanoma
[5] = system: SF-295 CNS
[6] = system: U251 CNS
[7] = system: NCI-H460 lung
[8] = system: M14 melanoma
[9] = system: SNB-19 CNS
[10] = system: OVCAR-3 ovarian
[11] = system: NCI-H23 lung
[12] = system: UO-31 renal
[13] = system: COLO 205 colon
[14] = system: A549 NSCLC
[15] = system: MOLT-4 leukemia
[16] = system: HOP-92 NSCLC
[17] = system: DU-145 prostate
[18] = system: MDA-MB-435
[19] = system: RXF 393 renal
[20] = system: OVCAR-4 ovarian
[21] = system: MDA-N
[22] = system: MDA-MB-231 breast
[23] = system: IGROV1 ovarian
[24] = system: TK-10 renal
[25] = system: SK-OV-3 ovarian
[26] = system: UACC-62 melanoma
[27] = system: HCT-15 colon
[28] = system: SR leukemia
[29] = system: NCI/ADR-RES ovarian
[30] = system: SK-MEL-2 melanoma
[31] = system: OVCAR-8 ovarian
[32] = system: SK-MEL-5 melanoma
[33] = system: CAKI-1 renal
[34] = system: SF-539 CNS
[35] = system: SF-268 CNS
[36] = system: PC-3 prostate
[37] = system: SK-MEL-28 melanoma
[38] = system: K-562 leukemia
[39] = system: EKVX NSCLC
[40] = system: HCC-2998 colon
[41] = system: KM12 colon
[42] = system: HOP-62 NSCLC
[43] = system: UACC-257 melanoma
[44] = system: CCRF-CEM leukemia
[45] = system: NCI-H226 lung
[46] = system: T-47D breast
[47] = system: A498 renal
[48] = system: HS 578T breast
[49] = system: ACHN renal
[50] = system: NCI-H522 lung
[51] = system: LOX IMVI melanoma
[52] = system: SN12C renal
[53] = system: MCF7 breast
[54] = system: RPMI-8226 leukemia
[55] = system: SNB-75 CNS
[56] = system: OVCAR-5 ovarian
[57] = system: 786-0 renal
[58] = system: HCT-116 colon
[59] = system: HL-60(TB) leukemia

## CN(Cc1cnc2c(n1)C(N)=NN(N)N2)c1ccc(C(=O)NC(CCP(=O)(O)O)C(=O)O)cc1 (configuration not stated)
[1]
  TGI: > 100 µM
[2]
  TGI: > 89.6 µM
[3]
  TGI: > 38.8 µM
[4]
  TGI: > 100 µM
[5]
  TGI: > 100 µM
[6]
  TGI: > 100 µM
[7]
  TGI: > 100 µM
[8]
  TGI: > 100 µM
[9]
  TGI: > 100 µM
[10]
  TGI: > 100 µM
[11]
  TGI: > 100 µM
[12]
  TGI: > 100 µM
[13]
  TGI: > 100 µM
[14]
  TGI: > 100 µM
[15]
  TGI: > 100 µM
[16]
  TGI: > 100 µM
[17]
  TGI: > 100 µM
[18]
  TGI: > 100 µM
[19]
  TGI: 71.8 µM
[20]
  TGI: > 100 µM
[21]
  TGI: > 100 µM
[22]
  TGI: > 100 µM
[23]
  TGI: > 100 µM
[24]
  TGI: > 100 µM
[25]
  TGI: > 100 µM
[26]
  TGI: > 100 µM
[27]
  TGI: > 100 µM
[28]
  TGI: > 100 µM
[29]
  TGI: > 55.8 µM
[30]
  TGI: > 100 µM
[31]
  TGI: > 58.3 µM
[32]
  TGI: > 100 µM
[33]
  TGI: > 100 µM
[34]
  TGI: > 100 µM
[35]
  TGI: > 100 µM
[36]
  TGI: > 100 µM
[37]
  TGI: > 100 µM
[38]
  TGI: > 100 µM
[39]
  TGI: > 100 µM
[40]
  TGI: > 100 µM
[41]
  TGI: > 100 µM
[42]
  TGI: > 100 µM
[43]
  TGI: > 100 µM
[44]
  TGI: > 100 µM
[45]
  TGI: > 54 µM
[46]
  TGI: > 100 µM
[47]
  TGI: > 100 µM
[48]
  TGI: > 100 µM
[49]
  TGI: > 100 µM
[50]
  TGI: > 100 µM
[51]
  TGI: > 100 µM
[52]
  TGI: > 100 µM
[53]
  TGI: > 100 µM
[54]
  TGI: > 100 µM
[55]
  TGI: > 100 µM

## COc1cc(C2SC(N)=Nc3c2c(C)nn3C(=O)c2ccc(Cl)cc2)cc(OC)c1OC (configuration not stated)
[1]
  TGI: > 10 µM
[2]
  TGI: > 10 µM
[3]
  TGI: > 10 µM
[4]
  TGI: > 10 µM
[56]
  TGI: > 10 µM
[5]
  TGI: > 10 µM
[6]
  TGI: > 10 µM
[7]
  TGI: > 10 µM
[8]
  TGI: > 10 µM
[9]
  TGI: > 10 µM
[10]
  TGI: > 10 µM
[11]
  TGI: > 10 µM
[13]
  TGI: > 10 µM
[14]
  TGI: > 10 µM
[15]
  TGI: > 10 µM
[16]
  TGI: > 10 µM
[17]
  TGI: > 10 µM
[18]
  TGI: > 10 µM
[19]
  TGI: > 10 µM
[20]
  TGI: > 10 µM
[21]
  TGI: > 10 µM
[22]
  TGI: > 10 µM
[23]
  TGI: > 10 µM
[57]
  TGI: > 10 µM
[24]
  TGI: > 10 µM
[25]
  TGI: > 10 µM
[26]
  TGI: > 10 µM
[27]
  TGI: > 10 µM
[28]
  TGI: > 10 µM
[29]
  TGI: > 10 µM
[30]
  TGI: > 10 µM
[31]
  TGI: > 10 µM
[32]
  TGI: > 10 µM
[33]
  TGI: > 10 µM
[34]
  TGI: > 10 µM
[35]
  TGI: > 10 µM
[58]
  TGI: > 10 µM
[36]
  TGI: > 10 µM
[37]
  TGI: > 10 µM
[38]
  TGI: > 10 µM
[39]
  TGI: > 10 µM
[40]
  TGI: > 10 µM
[41]
  TGI: > 10 µM
[42]
  TGI: > 10 µM
[43]
  TGI: > 10 µM
[44]
  TGI: > 10 µM
[45]
  TGI: > 10 µM
[46]
  TGI: > 10 µM
[59]
  TGI: > 10 µM
[48]
  TGI: > 10 µM
[49]
  TGI: > 10 µM
[50]
  TGI: > 10 µM
[51]
  TGI: > 10 µM
[52]
  TGI: > 10 µM
[53]
  TGI: > 10 µM
[54]
  TGI: > 10 µM
[55]
  TGI: > 10 µM
